Data: patent US10188656B2, “Methods of treatment of malignancies” (Agios Pharmaceuticals, Inc., priority 2015, dated 2019)

Experiments:
Type in all cases: in vivo, human
2-HG plasma levels = assay: Phase 1/2 study: pharmacodynamic response, 2-HG plasma levels; details: most subjects with R140Q mutation, all doses; sustained reduction by Day 1 of Cycle 2
Procedure: Subjects in the dose escalation phase and Part 1 Expansion also will undergo PK/PD assessments over a 10-hour period on C1D15, C2D1, and C4D1. […] These subjects will have urine collected for PK/PD evaluation at screening; prior to dosing on C1D15, C2D1 and Day 1 of all cycles thereafter; and at the End of Treatment visit. Available bone marrow biopsy samples also will be assessed for 2-HG and α-KG levels.
The starting dose of COMPOUND 1 recommended for evaluation is 100 mg QD. This is based on the safety, PK, pharmacodynamics and clinical activity of COMPOUND 1 observed to date in AG221-C-001. […] Thus a dose of 100 mg should adequately achieve inhibition of 2-HG in subjects with either R140Q or R172K mutation.
Serial blood sampling for determination of concentration-time profiles of COMPOUND 1 and its metabolite (6-(6-(trifluoromethyl)pyridin-2-yl)-N2-(2-(trifluoromethyl)pyridin-4-yl)-1,3,5-triazine-2,4-diamine). Urine sampling for determination of concentrations of COMPOUND 1 and its metabolite (6-(6-(trifluoromethyl)pyridin-2-yl)-N2-(2-(trifluoromethyl)pyridin-4-yl)-1,3,5-triazine-2,4-diamine) (dose escalation and Part 1 expansion subjects only). Blood and bone marrow sampling for determination of 2-HG and α-KG levels.

[1] = Phase 1/2 study: safety (AEs, NCI CTCAE v4.03); details: 100 mg, including ≥Grade 3
From the text: Monitoring of AEs, including determination of DLTs, serious adverse events (SAEs), and AEs leading to discontinuation; safety laboratory parameters; physical examination findings; vital signs; 12-lead ECGs; LVEF; and ECOG PS.
The severity of AEs will be assessed by the NCI CTCAE, Version 4.03.

[2] = system: advanced hematologic malignancies with an IDH2 mutation; assay: Example 2: NRAS mutation status at screening versus COMPOUND 1 response (next generation sequencing, Fisher's exact test)
Procedure: A subset of the clinical samples from the trial described in Example 1 were analyzed at screening. Sample types included bone marrow, peripheral blood and mononuclear cells isolated from bone marrow or peripheral blood. DNAs were extracted from these samples and sequenced at Foundation Medicine (see http://foundationone.com/learn.php) using next generation sequencing technique.
A total of 60 genes were identified to carry at least one mutation in the analyzed set (including IDH2 gene). Fisher's exact test was conducted to evaluate the association of somatic mutations with clinical response (responders include CR, CRp, CRi and PR, indicated as +, while none-responders include SD and PD, indicated as − in Table 9). The P-values were adjusted by multiple-test correction.
Mutation status positive (+) means any known mutation(s) in NRAS, and negative (−) means no mutation in NRAS was present.
Positive response status (+) includes CR, mCR and PR and negative response status (−) includes stable disease (SD) and pregressive disease (PD).

[3] = system: rrAML with an IDH2 mutation; assay: Example 5: FoundationOne Heme panel co-mutations versus response to COMPOUND 1 in rrAML patients
Procedure: FoundationOne Heme panel analysis was performed on 100 screening samples from rrAML patients in the trial described in Example 1. Sample types included peripheral blood and bone marrow.
While rare, co-occurring mutations in TET2 (5 patients) and IDH1 (4 patients) were also observed in this cohort. Mechanistically, mutations in these genes may counteract the efficacy of COMPOUND 1; however, presence of either of these mutated genes was not associated with significant decrease in ORR or complete response (CR) (Table 10).
To further investigate the association between NRAS mutations and ORR to COMPOUND 1, a more detailed analysis of individual mutation sites was performed. NRAS mutations at G12, G13, and Q61 are the most highly characterized sites known to result in constitutive RAS signaling, see Prior I A, Lewis P D, Mattos C. A comprehensive survey of Ras mutations in cancer, Cancer Res. 2012; 72(10):2457-67. When mutations at these sites were analyzed versus ORR to COMPOUND 1, the observed decrease in ORR became statistically significant (p=0.002, see, FIG. 9A and Table 11). Table 11 provides a contingency table indicating statistical significance of lower overall response rate seen in patients presenting with an NRAS co-mutation.

[4] = rrAML, co-occurring ASXL1 mutation
[5] = rrAML, co-occurring ATM mutation
[6] = rrAML, co-occurring BCOR mutation
[7] = rrAML, co-occurring BCORL1 mutation
[8] = rrAML, co-occurring CBL mutation
[9] = rrAML, co-occurring CEBPA mutation
[10] = rrAML, co-occurring CUX1 mutation
[11] = rrAML, co-occurring DNMT3A mutation
[12] = rrAML, co-occurring ETV6 mutation
[13] = rrAML, co-occurring EZH2 mutation
[14] = rrAML, co-occurring FLT3 mutation
[15] = rrAML, co-occurring GATA2 mutation
[16] = rrAML, co-occurring IDH1 mutation
[17] = rrAML, co-occurring JAK2 mutation
[18] = rrAML, co-occurring KMT2A mutation
[19] = rrAML, co-occurring KRAS mutation
[20] = rrAML, co-occurring NPM1 mutation
[21] = rrAML, co-occurring NRAS mutation
[22] = rrAML, co-occurring PHF6 mutation
[23] = rrAML, co-occurring PTPN11 mutation
[24] = rrAML, co-occurring RUNX1 mutation
[25] = rrAML, co-occurring SETBP1 mutation
[26] = rrAML, co-occurring SF3B1 mutation
[27] = rrAML, co-occurring SRSF2 mutation
[28] = rrAML, co-occurring STAG2 mutation
[29] = rrAML, co-occurring TET2 mutation
[30] = rrAML, co-occurring TP53 mutation
[31] = rrAML, co-occurring U2AF1 mutation
[32] = rrAML, co-occurring WT1 mutation

SMILES: CC(C)(O)CNc1nc(Nc2ccnc(C(F)(F)F)c2)nc(-c2cccc(C(F)(F)F)n2)n1 [COMPOUND 1, 2-methyl-1-[(4-[6-(trifluoromethyl)pyridin-2-yl]-6-{[2-(trifluoromethyl)pyridin-4-yl]amino}-1,3,5-triazin-2-yl)amino]propan-2-ol]
- inhibition of 2-HG plasma levels (2-HG plasma levels): up to 98%
- safety profile [1]: consistent with that of lower doses
- number of patients ([2]; response status +, NRAS mutation +): 2
- number of patients ([2]; response status +, NRAS mutation −): 55
- number of patients ([2]; response status − (SD, PD), NRAS mutation +): 21
- number of patients ([2]; response status − (SD, PD), NRAS mutation −): 40
- number of patients, No Response ([3]; NRAS mt (G12, G13, Q61)): 13
- number of patients, Response ([3]; NRAS mt (G12, G13, Q61)): 1
- number of patients, No Response ([3]; NRAS wt): 37
- number of patients, Response ([3]; NRAS wt): 40
- ORR ([3]; patients with the least (≤3) co-occurring mutations): 69.2%
- ORR ([3]; patients with the most (≥6) co-occurring mutations): 23.3%
- CR [3, 4]: 0.269
- CR, OR [3, 4]: 0.583
- ORR [3, 4]: 0.385
- ORR, OR [3, 4]: 0.784
- ORR ([3]; rrAML, co-occurring ASXL1 mutation (text)): 39%
- CR [3, 5]: 0.500
- CR, OR [3, 5]: 1.721
- ORR [3, 5]: 0.500
- ORR, OR [3, 5]: 1.306
- CR [3, 6]: 0.308
- CR, OR [3, 6]: 0.743
- ORR [3, 6]: 0.385
- ORR, OR [3, 6]: 0.800
- CR [3, 7]: 0.000
- CR, OR [3, 7]: 0.334
- ORR [3, 7]: 0.000
- ORR, OR [3, 7]: 0.254
- CR [3, 8]: 0.333
- CR, OR [3, 8]: 0.853
- ORR [3, 8]: 0.333
- ORR, OR [3, 8]: 0.646
- CR [3, 9]: 0.167
- CR, OR [3, 9]: 0.331
- ORR [3, 9]: 0.167
- ORR, OR [3, 9]: 0.250
- CR [3, 10]: 0.500
- CR, OR [3, 10]: 1.721
- ORR [3, 10]: 0.500
- ORR, OR [3, 10]: 1.306
- CR [3, 11]: 0.359
- CR, OR [3, 11]: 0.945
- ORR [3, 11]: 0.513
- ORR, OR [3, 11]: 1.509
- CR [3, 12]: 0.000
- CR, OR [3, 12]: 0.334
- ORR [3, 12]: 0.500
- ORR, OR [3, 12]: 1.306
- CR [3, 13]: 0.200
- CR, OR [3, 13]: 0.418
- ORR [3, 13]: 0.200
- ORR, OR [3, 13]: 0.316
- CR [3, 14]: 0.200
- CR, OR [3, 14]: 0.408
- ORR [3, 14]: 0.200
- ORR, OR [3, 14]: 0.306
- CR [3, 15]: 0.000
- CR, OR [3, 15]: 0.334
- ORR [3, 15]: 0.000
- ORR, OR [3, 15]: 0.254
- CR [3, 16]: 0.250
- CR, OR [3, 16]: 0.563
- ORR [3, 16]: 0.500
- ORR, OR [3, 16]: 1.310
- CR [3, 17]: 0.000
- CR, OR [3, 17]: 0.182
- ORR [3, 17]: 0.000
- ORR, OR [3, 17]: 0.138
- CR [3, 18]: 0.286
- CR, OR [3, 18]: 0.662
- ORR [3, 18]: 0.357
- ORR, OR [3, 18]: 0.703
- CR [3, 19]: 0.200
- CR, OR [3, 19]: 0.418
- ORR [3, 19]: 0.400
- ORR, OR [3, 19]: 0.864
- CR [3, 20]: 0.250
- CR, OR [3, 20]: 0.548
- ORR [3, 20]: 0.417
- ORR, OR [3, 20]: 0.924
- CR [3, 21]: 0.063
- CR, OR [3, 21]: 0.099
- ORR [3, 21]: 0.188
- ORR, OR [3, 21]: 0.270
- ORR ([3]; rrAML, co-occurring NRAS mutation (text)): 19%
- CR [3, 22]: 0.333
- CR, OR [3, 22]: 0.850
- ORR [3, 22]: 0.500
- ORR, OR [3, 22]: 1.314
- CR [3, 23]: 0.000
- CR, OR [3, 23]: 0.148
- ORR [3, 23]: 0.000
- ORR, OR [3, 23]: 0.112
- CR [3, 24]: 0.217
- CR, OR [3, 24]: 0.429
- ORR [3, 24]: 0.261
- ORR, OR [3, 24]: 0.411
- ORR ([3]; rrAML, co-occurring RUNX1 mutation (text)): 26%
- CR [3, 25]: 0.000
- CR, OR [3, 25]: 0.237
- ORR [3, 25]: 0.000
- ORR, OR [3, 25]: 0.180
- CR [3, 26]: 0.000
- CR, OR [3, 26]: 0.237
- ORR [3, 26]: 0.000
- ORR, OR [3, 26]: 0.180
- CR [3, 27]: 0.293
- CR, OR [3, 27]: 0.637
- ORR [3, 27]: 0.341
- ORR, OR [3, 27]: 0.598
- ORR ([3]; rrAML, co-occurring SRSF2 mutation (text)): 34%
- CR [3, 28]: 0.455
- CR, OR [3, 28]: 1.462
- ORR [3, 28]: 0.455
- ORR, OR [3, 28]: 1.091
- CR [3, 29]: 0.333
- CR, OR [3, 29]: 0.853
- ORR [3, 29]: 0.333
- ORR, OR [3, 29]: 0.646
- CR [3, 30]: 0.000
- CR, OR [3, 30]: 0.334
- ORR [3, 30]: 0.000
- ORR, OR [3, 30]: 0.254
- CR [3, 31]: 0.500
- CR, OR [3, 31]: 1.721
- ORR [3, 31]: 1.000
- ORR, OR [3, 31]: 6.678
- CR [3, 32]: 0.333
- CR, OR [3, 32]: 0.853
- ORR [3, 32]: 0.333
- ORR, OR [3, 32]: 0.646
